Test results as given in patent publication US9273057B2 (Bristol-Myers Squibb Company, priority 2012, dated 2016).

Molecular target: CK2A1 (CK2α/β) (Homo sapiens, UniProt P68400)
Assay: CK2 kinase assay, CK2A1 (CK2α/β)
Format: biochemical
Conditions: Table A; read-out: CK2A1 (CK2α/β) (IC50)

Sequence of CK2A1 (CK2α/β) (P68400 whole entry, species assumed): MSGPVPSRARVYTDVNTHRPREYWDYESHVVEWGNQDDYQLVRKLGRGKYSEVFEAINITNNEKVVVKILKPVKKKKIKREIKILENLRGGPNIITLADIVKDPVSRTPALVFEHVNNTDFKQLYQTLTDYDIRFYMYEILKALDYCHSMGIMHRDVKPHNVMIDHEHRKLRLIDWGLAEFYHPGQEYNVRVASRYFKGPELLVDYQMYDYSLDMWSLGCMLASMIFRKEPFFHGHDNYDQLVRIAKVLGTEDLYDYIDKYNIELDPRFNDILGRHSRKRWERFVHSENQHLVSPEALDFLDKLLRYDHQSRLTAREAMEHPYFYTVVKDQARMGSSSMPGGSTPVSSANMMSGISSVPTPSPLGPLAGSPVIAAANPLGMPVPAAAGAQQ
Sequence of CK2A1 (CK2α/β) (P67870 whole entry partner, species assumed): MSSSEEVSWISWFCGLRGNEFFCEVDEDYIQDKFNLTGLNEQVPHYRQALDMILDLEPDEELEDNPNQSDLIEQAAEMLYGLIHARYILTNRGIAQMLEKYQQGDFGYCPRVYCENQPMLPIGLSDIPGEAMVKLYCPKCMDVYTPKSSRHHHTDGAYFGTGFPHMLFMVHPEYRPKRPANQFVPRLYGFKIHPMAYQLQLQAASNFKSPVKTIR

| SMILES | IC50 |
| --- | --- |
| CCNc1nc(Nc2cc(C#N)cc(N3CCC4(CC3)CC(=O)N(C)C4)c2Cl)nn2c(C#N)cnc12 (racemic) [Example 783, (+/−)-2-((2-chloro-5-cyano-3-(2-methyl-3-oxo-2,8-diazaspiro[4.5]decan-8-yl)phenyl)amino)-4-(ethylamino)imidazo[2,1-f][1,2,4]triazine-7-carbonitrile] | 3.76 nM |
| CCNc1nc(Nc2cc(C#N)cc(NCCO)c2Cl)nn2c(C#N)cnc12 [Example 630, 2-((2-chloro-5-cyano-3-((2-hydroxyethyl)amino)phenyl)amino)-4-(ethylamino)imidazo[2,1-f][1,2,4]triazine-7-carbonitrile] | 0.68 nM |
| CCNc1nc(-n2cc([C@@H]3C[C@H]3CN(C)C)c3ccc(C#N)cc32)nn2c(C#N)cnc12 (single isomer, unassigned) [Example 775] | 2.35 nM |
| COC(=O)N[C@H]1CCN(c2cc(C#N)cc(Nc3nc(NC4CC4)c4ncc(C#N)n4n3)c2Cl)CC1NC(C)C (stereo in doubt) [Example 752, methyl N-[(3R,4S)-1-(2-chloro-5-cyano-3-{[7-cyano-4-(cyclopropylamino)imidazo [2,1-f][1,2,4]triazin-2-yl]amino}phenyl)-3-[(propan-2-yl)amino]piperidin-4-yl]carbamate] | 4.93 nM |
| CCNc1nc(Nc2cc(C#N)cc(N3CC[C@@H](NC(=O)OC)[C@H](OC(=O)[C@H](C)O)C3)c2Cl)nn2c(C#N)cnc12 [Example 341, (S)-(3R,4R)-1-(2-chloro-5-cyano-3-((7-cyano-4-(ethylamino)imidazo[2,1-f][1,2,4]triazin-2-yl)amino)phenyl)-4-((methoxycarbonyl)amino)piperidin-3-yl 2-hydroxypropanoate] | 1 nM |
| CN1CC2(CCN(c3cc(C#N)cc(Nc4nc(NC5CC5)c5ncc(C#N)n5n4)c3Cl)CC2)CC1=O (racemic) [Example 782, (+/−)-2-((2-chloro-5-cyano-3-(2-methyl-3-oxo-2,8-diazaspiro[4.5]decan-8-yl)phenyl)amino)-4-(cyclopropylamino)imidazo[2,1-f][1,2,4]triazine-7-carbonitrile] | 0.58 nM |
| CC1(O)CN([C@@H]2CCN(c3cc(C#N)cc(Nc4nc(NC5CC5)c5ncc(C#N)n5n4)c3Cl)C2)C1 [Example 47, (R)-2-(2-chloro-5-cyano-3-(3-(3-hydroxy-3-methylazetidin-1-yl)pyrrolidin-1-yl)phenylamino)-4-(cyclopropylamino)imidazo [1,2-f][1,2,4]triazine-7-carbonitrile] | 1.73 nM |
| C[N+]1([O-])CCN(C2CN(c3cc(C#N)cc(Nc4nc(NC5CC5)c5ncc(C#N)n5n4)c3Cl)C2)CC1 [Example 169, 2-((2-chloro-5-cyano-3-(3-(4-methyl-4-oxido-1-piperazinyl)-1-azetidinyl)phenyl)amino)-4-(cyclopropylamino)imidazo [2,1-f][1,2,4]triazine-7-carbonitrile] | 2.59 nM |
| N#Cc1cc(Nc2nc(NC3CC3)c3ncc(C#N)n3n2)c(Cl)c(N2CCN(CC(O)CF)CC2)c1 (racemic) [Example 66, (+/−) 2-((2-chloro-5-cyano-3-(4-(3-fluoro-2-hydroxypropyl)-1-piperazinyl)phenyl)amino)-4-(cyclopropylamino) imidazo[2,1-f][1,2,4] triazine-7-carbonitrile] | 0.58 nM |
| CCNc1nc(Nc2cc(C#N)cc(N3CCN(C4CN(CC(O)CF)C4)CC3)c2Cl)nn2c(C#N)cnc12 (stereo not drawn) [Example 586, 2-[(2-chloro-5-cyano-3-{4-[1-(3-fluoro-2-hydroxypropyl)azetidin-3-yl]piperazin-1-yl}phenyl)amino]-4-(ethylamino)imidazo[2,1-f][1,2,4]triazine-7-carbonitrile] | 1.58 nM |
| CN1CCN(c2cc(C#N)cc(Nc3nc(NC4CC4)c4ncc(C#N)n4n3)c2Cl)C(=O)C1 [Example 618, 2-((2-chloro-5-cyano-3-(4-methyl-2-oxopiperazin-1-yl)phenyl)amino)-4-(cyclopropylamino)imidazo[2,1-f][1,2,4]triazine-7-carbonitrile] | 2.07 nM |
| CCNc1nc(Nc2cc(C#N)cc(N3CCC(N)CC3)c2Cl)nn2c(C#N)cnc12 [Example 329, 2-((3-(4-aminopiperidin-1-yl)-2-chloro-5-cyanophenyl)amino)-4-(ethylamino)imidazo[2,1-f][1,2,4]triazine-7-carbonitrile] | 0.34 nM |
| CNC(=O)CN1CCN(c2cc(C#N)cc(Nc3nc(NC4CC4)c4ncc(C#N)n4n3)c2Cl)C(=O)C1 [Example 625, 2-(4-(2-chloro-5-cyano-3-((7-cyano-4-(cyclopropylamino)imidazo[2,1-f][1,2,4]triazin-2-yl)amino)phenyl)-3-oxopiperazin-1-yl)-N-methylacetamide] | 5.8 nM |
| N#Cc1cc(Nc2nc(NC3CC3)c3ncc(C#N)n3n2)c(Cl)c(N2CCN([C@H]3C[C@H](F)C3)CC2)c1 [Example 601, 2-[(2-chloro-5-cyano-3-{4-[(1r,3r)-3-fluorocyclobutyl]piperazin-1-yl}phenyl)amino]-4-(cyclopropylamino)imidazo [2,1-f][1,2,4]triazine-7-carbonitrile] | 1.41 nM |
| COC(=O)N[C@@H]1CCN(c2cc(C#N)cc(Nc3nc(NC4CC4)c4ncc(C#N)n4n3)c2Cl)C[C@H]1OC(=O)C(C)OP(=O)(O)O (stereo partly drawn) [Example 197, (3R,4R)-1-(2-chloro-5-cyano-3-((7-cyano-4-(cyclopropylamino)imidazo[2,1-f][1,2,4]triazin-2-yl)amino)phenyl)-4-((methoxycarbonyl)amino)-3-piperidinyl 2-(phosphonooxy)propanoate] | 5 nM |
| N#Cc1cc(Nc2nc(NC3CC3)c3ncc(C#N)n3n2)c(Cl)c(N2CCC(NC3(CS(=O)(=O)c4ccccc4)COC3)CC2)c1 (racemic) [Example 113, (+/−) 2-((2-chloro-5-cyano-3-(4-((3-((phenylsulfonyl)methyl)-3-oxetanyl)amino)-1-piperidinyl)phenyl)amino)-4-(cyclopropylamino)imidazo [2,1-f][1,2,4]triazine-7-carbonitrile] | 1.01 nM |
| COC(=O)N1CCC2CCN(c3cc(C#N)cc(Nc4nc(NC5CC5)c5ncc(C#N)n5n4)c3Cl)CC21 (racemic) [Example 458, (+/−)-methyl 6-(2-chloro-5-cyano-3-((7-cyano-4-(cyclopropylamino)imidazo[2,1-f][1,2,4]triazin-2-yl)amino)phenyl)octahydro-1H-pyrrolo[2,3-c]pyridine-1-carboxylate] | 16.4 nM |
| CC(=O)N1CC2(CCN(c3cc(C#N)cc(Nc4nc(NC5CC5)c5ncc(C#N)n5n4)c3Cl)CC2)C1 [Example 793, 2-((3-(2-acetyl-2,7-diazaspiro[3.5]nonan-7-yl)-2-chloro-5-cyanophenyl)amino)-4-(cyclopropylamino)imidazo[2,1-f][1,2,4]triazine-7-carbonitrile] | 0.81 nM |
| CCNC(=O)NCC1CN(c2cc(C#N)cc(Nc3nc(NC4CC4)c4ncc(C#N)n4n3)c2Cl)CCO1 (stereo not drawn) [Example 711, 1-{[4-(2-chloro-5-cyano-3-{[7-cyano-4-(cyclopropylamino)imidazo[2,1-f][1,2,4]triazin-2-yl]amino}phenyl)morpholin-2-yl]methyl}-3-ethylurea] | 2.64 nM |
| N#Cc1cc(Nc2nc(NC3CC3)c3ncc(C#N)n3n2)c(Cl)c(OC[C@@H]2COCCN2)c1 [Example 439, (S)-2-((2-chloro-5-cyano-3-(morpholin-3-ylmethoxy)phenyl)amino)-4-(cyclopropylamino)imidazo[2,1-f][1,2,4]triazine-7-carbonitrile] | 0.75 nM |
| CCNc1nc(Nc2cc(C#N)cc(N3CC[C@@H](NC(=O)OC)[C@H](N(C)C4COC4)C3)c2Cl)nn2c(C#N)cnc12 [Example 750, methyl ((3R,4R)-1-(2-chloro-5-cyano-3-((7-cyano-4-(ethylamino)imidazo[2,1-f][1,2,4]triazin-2-yl)amino)phenyl)-3-(methyl(oxetan-3-yl)amino)piperidin-4-yl)carbamate] | 0.9 nM |
| CN(CCC#N)Cc1cc(C#N)cc(Nc2nc(NC3CC3)c3ncc(C#N)n3n2)c1Cl [Example 464, 2-[(2-chloro-5-cyano-3-{[(2-cyanoethyl)(methyl)amino]methyl}phenyl)amino]-4-(cyclopropylamino)imidazo[2,1-f][1,2,4]triazine-7-carbonitrile] | 0.57 nM |
| N#Cc1cc(Nc2nc(NC3CC3)c3ncc(C#N)n3n2)c(Cl)c(C2CCNCC2)c1 [Example 208, 2-((2-chloro-5-cyano-3-(piperidin-4-yl)phenyl)amino)-4-(cyclopropylamino)imidazo[2,1-f][1,2,4]triazine-7-carbonitrile] | 0.57 nM |
| N#Cc1cc(Nc2nc(NC3CC3)c3ncc(C#N)n3n2)c(Cl)c(N2CCC(NCC(O)CF)CC2)c1 (racemic) [Example 144, (+/−) 2-((2-chloro-5-cyano-3-(4-((3-fluoro-2-hydroxypropyl)amino)-1-piperidinyl)phenyl)amino)-4-(cyclopropylamino)imidazo [2,1-f][1,2,4]triazine-7-carbonitrile] | 1.11 nM |
| CC1(C)CC(CN2CCN(c3cc(C#N)cc(Nc4nc(NC5CC5)c5ncc(C#N)n5n4)c3Cl)CC2)O1 (stereo not drawn) [Example 527, 2-((2-chloro-5-cyano-3-(4-((4,4-dimethyloxetan-2-yl)methyl)piperazin-1-yl)phenyl)amino)-4-(cyclopropylamino)imidazo[2,1-f][1,2,4]triazine-7-carbonitrile] | 1.91 nM |
| N#Cc1cc(CN2CCCC3(COC3)C2)c(Cl)c(Nc2nc(NC3CC3)c3ncc(C#N)n3n2)c1 [Example 463, 2-((3-(2-oxa-6-azaspiro[3.5]nonan-6-ylmethyl)-2-chloro-5-cyanophenyl)amino)-4-(cyclopropylamino)imidazo[2,1-f][1,2,4]triazine-7-carbonitrile] | 1 nM |
| N#Cc1cc(Nc2nc(NC3CC3)c3ncc(C#N)n3n2)c(Cl)c(N2CCN([C@H]3CCC[C@@H]3O)CC2)c1 [Example 589, 2-[(2-chloro-5-cyano-3-{4-[(1S,2S)-2-hydroxycyclopentyl]piperazin-1-yl}phenyl)amino]-4-(cyclopropylamino)imidazo [2,1-f][1,2,4]triazine-7-carbonitrile] | 7.56 nM |
